Results published in the NIST ThermoML archive (doi:10.1021/je200030k).

Tests used:
[1] = refractive index (Na D-line) (dimensionless); xn = mol fraction of the nth substance listed; settings: 101 kPa, Liquid, Standard Abbe refractometry
[2] = xn = mol fraction of the nth substance listed; settings: 101 kPa, Liquid, Vibrating tube method

CCCCn1cc[n+](C)c1.NCC(=O)[O-] [1-butyl-3-methylimidazolium glycinate] + CC(C)O
Settings	mass density, [2] [kg/m3]	refractive index, [1]
298.15 K, x1 = 0.0965	877.6	1.405
298.15 K, x1 = 0.1992	957.8	1.43
298.15 K, x1 = 0.3059	1024.4	1.451
298.15 K, x1 = 0.3977	1071.9	1.466
298.15 K, x1 = 0.5115	1121.6	1.48
298.15 K, x1 = 0.5868	1149.9	1.488
298.15 K, x1 = 0.7052	1188.4	1.499
298.15 K, x1 = 0.8117	1217.5	1.509
298.15 K, x1 = 0.8775	–	1.514
303.15 K, x1 = 0.0965	870.7	1.404
303.15 K, x1 = 0.1992	951.4	1.429
303.15 K, x1 = 0.3059	1018.6	1.45
303.15 K, x1 = 0.3977	1066.5	1.464
303.15 K, x1 = 0.5115	1116.8	1.478
303.15 K, x1 = 0.5868	1145.4	1.487
303.15 K, x1 = 0.7052	1184.3	1.499
303.15 K, x1 = 0.8117	1213.9	1.508
303.15 K, x1 = 0.8775	–	1.513
308.15 K, x1 = 0.0965	863	1.403
308.15 K, x1 = 0.1992	944.2	1.429
308.15 K, x1 = 0.3059	1012	1.449
308.15 K, x1 = 0.3977	1060.6	1.463
308.15 K, x1 = 0.5115	1111.4	1.477
308.15 K, x1 = 0.5868	1140.5	1.486
308.15 K, x1 = 0.7052	1180	1.497
308.15 K, x1 = 0.8117	1210	1.505
308.15 K, x1 = 0.8775	1226.4	1.51
313.15 K, x1 = 0.0965	854.7	1.402
313.15 K, x1 = 0.1992	936.6	1.427
313.15 K, x1 = 0.3059	1005	1.449
313.15 K, x1 = 0.3977	1054.1	1.462
313.15 K, x1 = 0.5115	1105.8	1.477
313.15 K, x1 = 0.5868	1135.3	1.485
313.15 K, x1 = 0.7052	1175.4	1.497
313.15 K, x1 = 0.8117	1205.9	1.506
313.15 K, x1 = 0.8775	–	1.511

CCCCn1cc[n+](C)c1.NCC(=O)[O-] [1-butyl-3-methylimidazolium glycinate] + CCCCO
Settings	mass density, [2] [kg/m3]	refractive index, [1]
298.15 K, x1 = 0.0972	885.2	1.418
298.15 K, x1 = 0.2125	962.5	1.438
298.15 K, x1 = 0.3041	1014.1	1.454
298.15 K, x1 = 0.3849	1054.3	1.465
298.15 K, x1 = 0.4929	1101.4	1.478
298.15 K, x1 = 0.6103	1146.3	1.49
298.15 K, x1 = 0.6923	1174.2	1.497
298.15 K, x1 = 0.8037	1208.4	1.506
298.15 K, x1 = 0.9129	–	1.514
303.15 K, x1 = 0.0972	881.7	1.417
303.15 K, x1 = 0.2125	959.1	1.438
303.15 K, x1 = 0.3041	1010.9	1.452
303.15 K, x1 = 0.3849	1051.2	1.463
303.15 K, x1 = 0.4929	1098.4	1.476
303.15 K, x1 = 0.6103	1143.3	1.488
303.15 K, x1 = 0.6923	1171.2	1.496
303.15 K, x1 = 0.8037	1205.4	1.505
303.15 K, x1 = 0.9129	–	1.513
308.15 K, x1 = 0.0972	878	1.415
308.15 K, x1 = 0.2125	955	1.437
308.15 K, x1 = 0.3041	1007	1.45
308.15 K, x1 = 0.3849	1048	1.461
308.15 K, x1 = 0.4929	1095	1.474
308.15 K, x1 = 0.6103	1140	1.487
308.15 K, x1 = 0.6923	1168	1.495
308.15 K, x1 = 0.8037	1202	1.504
308.15 K, x1 = 0.9129	1232	1.512
313.15 K, x1 = 0.0972	874	1.413
313.15 K, x1 = 0.2125	952	1.435
313.15 K, x1 = 0.3041	1004	1.45
313.15 K, x1 = 0.3849	1044	1.461
313.15 K, x1 = 0.4929	1092	1.474
313.15 K, x1 = 0.6103	1137	1.486
313.15 K, x1 = 0.6923	1165	1.495
313.15 K, x1 = 0.8037	1199	1.503
313.15 K, x1 = 0.9129	–	1.51
